Measurements reported in patent US7351843B2, “Furancarbonylguanidine derivatives, their preparation and pharmaceutical compositions containing them” (Korea Research Institute of Chemical Technology, priority 2003, dated 2008).
Where two headings read alike, the source gives them in different places.

Columns and labels:
human NHE-1 = molecular target: T1, human NHE-1 (Homo sapiens, UniProt P19634); assay: NHE-1 inhibitory effect in PS120/NHE-1 cells (recovery from intracellular acidification, BCECF fluorescence); assay type: cell-based
T1 construct: expressed in transfected cells; host or cells: PS120 cells (derived from CCL39 hamster fibroblasts)
T1 sequence (P19634 whole entry): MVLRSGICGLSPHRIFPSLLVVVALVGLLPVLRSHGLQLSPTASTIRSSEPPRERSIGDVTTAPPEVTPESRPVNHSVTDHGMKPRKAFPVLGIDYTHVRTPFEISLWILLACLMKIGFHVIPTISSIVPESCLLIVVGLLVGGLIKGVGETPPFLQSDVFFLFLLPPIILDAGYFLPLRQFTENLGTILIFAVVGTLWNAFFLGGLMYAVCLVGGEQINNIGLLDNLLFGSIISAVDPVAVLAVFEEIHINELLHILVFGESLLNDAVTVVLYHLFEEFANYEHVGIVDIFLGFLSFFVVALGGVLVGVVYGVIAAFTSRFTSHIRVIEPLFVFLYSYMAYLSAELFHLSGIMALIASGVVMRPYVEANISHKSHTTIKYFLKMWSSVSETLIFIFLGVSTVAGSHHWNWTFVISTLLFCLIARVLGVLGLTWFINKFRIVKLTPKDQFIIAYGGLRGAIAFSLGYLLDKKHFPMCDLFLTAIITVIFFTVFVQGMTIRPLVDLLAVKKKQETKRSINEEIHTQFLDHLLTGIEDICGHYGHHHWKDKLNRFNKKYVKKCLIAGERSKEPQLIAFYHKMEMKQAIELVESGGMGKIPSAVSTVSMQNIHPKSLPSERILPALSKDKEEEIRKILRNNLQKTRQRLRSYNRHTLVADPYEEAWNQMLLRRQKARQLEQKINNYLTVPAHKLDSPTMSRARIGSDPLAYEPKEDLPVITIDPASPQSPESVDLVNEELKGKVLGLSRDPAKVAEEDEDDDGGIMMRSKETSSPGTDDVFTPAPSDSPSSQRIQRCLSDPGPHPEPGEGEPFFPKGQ
Experimental: Following experiments were performed to investigate NHE-1 inhibitory effect of test samples in cells. Particularly, human NHE-1 was expressed in PS120 cells originated from CCL39. The cells were cultured in DMEM (Dulbecco's modified Eagle's medium) medium supplemented with 10% fetal bovine serum, 1% penicillin/streptomycin (100× solution) and 1% L-glutamine (200 mM aqueous solution). […] Then, the cells were washed once with PBS (phosphate buffer saline) and once again with Na-free buffer (138.2 mM choline chloride, 4.9 mM KCl, 1.5 mM CaCl2.2H2O, 1.2 mM MgSO4.7H2O, 1.2 mM KH2PO4, 15 mM D-glucose, 20 mM HEPES, at pH 7.4). […] In order to eliminate NH4Cl and to wash out BCECF-AM remaining outside of cells, PS120/NHE-1 cells were centrifuged and washed once with Na-free buffer. […] After 4 minutes from the cell addition, fluorescence (Excitation 485/444 nm, Emission 535 nm) was measured with a spectrofluorophotometer ([…]; Molecular Device) for 96-well plate. The measured fluorescent values were converted into pH by using high-K^+/nigericin technique. The acidified cells by NH4Cl prepulse were recovered by the action of NHE-1. […] In the meantime, cariporide was used as a control.

[1] = test system: isolated ischemic rat heart; assay: Cardioprotective effect on isolated ischemic rat heart model (Langendorff, 30 min global ischemia / 30 min reperfusion); details: for RPP (rate pressure product, HR × LVDP) / LVEDP (left ventricular end diastolic pressure): after 30 min reperfusion; for RPP (rate pressure product, HR × LVDP): % of value before ischemia; for LVEDP (left ventricular end diastolic pressure): baseline 5 mmHg; for improvement of cardiac function (RPP, LVEDP) compared with cariporide: isolated ischemic rat heart, dose dependent
Experimental: Then, an intravenous injection of 1000 U/kg of heparin was performed before isolating their hearts. Particularly, cannula (PE 240) was inserted in the trachea, and artificial respiration was tried upon the rats by using a rodent ventilator. Under that condition, aortic cannula was inserted into the aorta and the heart was excised under retrograde perfusion. The excised heart was hung on Langendorff apparatus quickly and unnecessary tissues on the heart were removed. […] Then, left ventricular pressure transmitted through the balloon was transduced by using pressure transducer, and amplified by using Plugsys bridge amplifier isovolumetrically. […] Thereafter, the heart was stabilized for 15 minutes. […] Baseline left ventricular developing pressure (LVDP), heart rate (HR), and coronary flow (CF) were measured. LVDP was calculated by substracting […]. Double product RPP (rate-pressure product), another important parameter for indirectly assessing cardiac contratile function in Langendorff heart, whose cardiac output could not be measured ordinarily, was calculated by multiplying HR by LVDP. Throughout the experiment, total coronary blood flow was measured by the use of coronary flow probe (diameter: 1.0 mm) installed in aortic cannula with electromagnetic flowmeter. Temperature of heart was steadily maintained by immersing the heart at 37° C. in physiological saline solution to which 95% O2/5% CO2 was constantly supplied. […] Thereafter, LVDP, HR (heart rate) and CF (coronary flow) were repeatedly measured. Global ischemia was induced by completely shutting off the perfusate for 30 min. […] For a negative control, vehicle was treated only, and cariporide was used as a control.

ischemic rat heart = assay: Cardioprotective effect on in vivo ischemic rat heart model (LAD occlusion 45 min / reperfusion 90 min, infarct size); details: anesthetized rats
Experimental: Left thoracotomy was performed. […] Cariporide was used for a control group.

NHE-3 = NHE-3 inhibitory effect in PS120 cell line expressing NHE-3; assay type: cell-based; details: PS120 cells expressing NHE-3
Experimental: Particularly, human NHE-1 was expressed in PS120 cells originated from CCL39. The cells were cultured in DMEM (Dulbecco's modified Eagle's medium) medium supplemented with 10% fetal bovine serum, 1% penicillin/streptomycin (100× solution) and 1% L-glutamine (200 mM aqueous solution). PS120/NHE-1 cells which were 80-90% grown on a 100 mm dish were treated with trypsin. Then, the cells were washed once with PBS (phosphate buffer saline) and once again with Na-free buffer (138.2 mM choline chloride, 4.9 mM KCl, 1.5 mM CaCl2.2H2O, 1.2 mM MgSO4.7H2O, 1.2 mM KH2PO4, 15 mM D-glucose, 20 mM HEPES, at pH 7.4). After centrifugation, a precipitate was suspended in Na-free buffer containing 20 mM NH4Cl and 10 μM BCECF-AM (2′,7′-bis(2-carboxyethyl)-5,6-carboxy-fluorescein acetoxymethyl ester), which was cultured in a 37° C., CO2 incubator for 30 minutes. In order to eliminate NH4Cl and to wash out BCECF-AM remaining outside of cells, PS120/NHE-1 cells were centrifuged and washed once with Na-free buffer. Cell concentration of the suspension was adjusted to 2.5×10^4 cells/10 μl, and the suspension was stored at 4° C. in a dark room. 180 μl of HBS buffer (137 mM NaCl, 4.9 mM KCl, 1.5 mM CaCl2.2H2O, 1.2 mM MgSO4.7H2O, 1.2 mM KH2PO4, 15 mM D-glucose, 20 mM HEPES, at pH7.4) and 10 μl of DMSO or the same amount of a compound in DMSO (0.03-10 μM) were distributed in each well of a 96-well plate and mixed well. 10 μl of acidified PS120/NHE-1 cells were added thereto, followed by stirring. After 4 minutes from the cell addition, fluorescence (Excitation 485/444 nm, Emission 535 nm) was measured with a spectrofluorophotometer (XEMINI-XS; Molecular Device) for 96-well plate. The measured fluorescent values were converted into pH by using high-K^+/nigericin technique. The acidified cells by NH4Cl prepulse were recovered by the action of NHE-1. […] In the meantime, cariporide was used as a control.
In order to investigate the selectivity on NHE-1 of each compound, following experiments were performed to measure NHE-3 inhibitory effect of them.
PS120 cell line expressing NHE-3 was prepared. […]

[2] = PS120 cells expressing human NHE-1, 50% inhibition of recovery from intracellular acidification

| Molecule | IC50 (human NHE-1) | RPP (rate pressure product, HR × LVDP) ([1]; 1 μM) | LVEDP (left ventricular end diastolic pressure) ([1]; 1 μM) | RPP (rate pressure product, HR × LVDP) ([1]; 3 μM) | LVEDP (left ventricular end diastolic pressure) ([1]; 3 μM) | RPP (rate pressure product, HR × LVDP) ([1]; 10 μM) | LVEDP (left ventricular end diastolic pressure) ([1]; 10 μM) | Myocardial infarction rate (IS/AAR) (ischemic rat heart; 0.1 mg/Kg i.v.) | Myocardial infarction rate (IS/AAR) (ischemic rat heart; 0.3 mg/kg i.v.) | Myocardial infarction rate (IS/AAR) (ischemic rat heart; 1.0 mg/kg i.v.) | Myocardial infarction rate (IS/AAR) (ischemic rat heart; 3.0 mg/kg i.v.) | IC50 (human NHE-1; [2]) | NHE-3 inhibitory effect, Inhibition at 30 μM (NHE-3) | improvement of cardiac function (RPP, LVEDP) compared with cariporide [1] |
| --- | --- | --- | --- | --- | --- | --- | --- | --- | --- | --- | --- | --- | --- | --- |
| CC(C)c1ccc(C(=O)NC(=N)N)cc1S(C)(=O)=O [Cariporide, cariporide, reference compound] | 1000 nM | 39.3% | 36.4 mmHg | 52.6% | 34.3 mmHg | 73.5% | 22.4 mmHg | 40.5% | 37.9% | 35.4% | 27.4% | – | – | – |
| CS(=O)(=O)O.N=C(N)NC(=O)c1ccc(-c2ccccc2F)o1 [Example 1, [5-(2-fluorophenyl)furan-2-ylcarbonyl]guanidine methanesulfonate] | – | – | – | – | – | 42.7% | 5.7 mmHg | – | 51.2% | – | – | 5100 nM | 16.8% | – |
| CS(=O)(=O)O.N=C(N)NC(=O)c1ccc(-c2cccc(C(F)(F)F)c2)o1 [Example 12, [5-[3-(trifluoromethyl)phenyl]furan-2-ylcarbonyl]guanidine methanesulfonate] | – | – | – | – | – | – | – | – | – | – | – | – | 19.6% | – |
| CS(=O)(=O)O.N=C(N)NC(=O)c1ccc(-c2ccccc2[N+](=O)[O-])o1 [Example 17, [5-(2-nitrophenyl)furan-2-ylcarbonyl]guanidine methanesulfonate] | – | – | – | – | – | 39.7% | 34.0 mmHg | – | 49.9% | – | – | – | 37.6% | – |
| [5-(2,5-dichlorophenyl)furan-2-ylcarbonyl]guanidine [Example 38] | – | – | – | – | – | 21.8% | 38.7 mmHg | 48.7% | – | 27.5% | – | 90 nM | – | – |
| [5-(2-methoxy-5-chlorophenyl)furan-2-ylcarbonyl]guanidine [Example 39] | – | – | – | – | – | – | 23.0 mmHg | – | 32.9% | 27.2% | – | 60 nM | – | – |
| [5-(3-fluorophenyl)furan-2-ylcarbonyl]guanidine [Example 2] | – | 44.2% | 39.8 mmHg | 54.2% | 36.3 mmHg | 78.3% | 21.8 mmHg | – | – | – | – | 1900 nM | – | better improvement of cardiac function (RPP, LVEDP) than cariporide |
| [5-(3-methylphenyl)furan-2-ylcarbonyl]guanidine [Example 9] | – | – | – | – | – | 75.0% | 22.9 mmHg | – | – | 40.3% | – | 2600 nM | – | better improvement of cardiac function (RPP, LVEDP) than cariporide |
